{
  "source": "paper PMC5889410",
  "about": "“Design and Biological Evaluation of Antifouling Dihydrostilbene Oxime Hybrids” (Marine Biotechnology (New York, N.y.), 2018)",
  "origin": "cited, not measured here",
  "key": {"Vibrio aestuarianus [1]": {"tested_on": "Vibrio aestuarianus", "conditions": "ref Moodie et al. ([2017b]); cited from earlier work"}, "Vibrio carchariae [2]": {"tested_on": "Vibrio carchariae", "conditions": "ref Moodie et al. ([2017b]); cited from earlier work"}, "Vibrio harveyi [3]": {"tested_on": "Vibrio harveyi", "conditions": "ref Moodie et al. ([2017b]); cited from earlier work"}, "Vibrio proteolyticus [4]": {"tested_on": "Vibrio proteolyticus", "conditions": "ref Moodie et al. ([2017b]); cited from earlier work"}, "Halomonas aquamarina [5]": {"tested_on": "Halomonas aquamarina", "conditions": "ref Moodie et al. ([2017b]); cited from earlier work"}, "marine bacteria": {"tested_on": "marine bacteria", "conditions": "panel of marine bacteria; ref Moodie et al. [2017b]; cited from earlier work"}, "Vibrio aestuarianus [6]": {"tested_on": "Vibrio aestuarianus", "conditions": "ref Moodie et al. ([2017b]); cited from earlier work", "remark": "listed apart in the source"}, "Vibrio carchariae [7]": {"tested_on": "Vibrio carchariae", "conditions": "ref Moodie et al. ([2017b]); cited from earlier work", "remark": "listed apart in the source"}, "Vibrio harveyi [8]": {"tested_on": "Vibrio harveyi", "conditions": "ref Moodie et al. ([2017b]); cited from earlier work", "remark": "listed apart in the source"}, "Vibrio natriegens": {"tested_on": "Vibrio natriegens", "conditions": "ref Moodie et al. ([2017b]); cited from earlier work"}, "Vibrio proteolyticus [9]": {"tested_on": "Vibrio proteolyticus", "conditions": "ref Moodie et al. ([2017b]); cited from earlier work", "remark": "listed apart in the source"}, "Halomonas aquamarina [10]": {"tested_on": "Halomonas aquamarina", "conditions": "ref Moodie et al. ([2017b]); cited from earlier work", "remark": "listed apart in the source"}, "Roseobacter litoralis": {"tested_on": "Roseobacter litoralis", "conditions": "ref Moodie et al. ([2017b]); cited from earlier work"}, "Shewanella putrefaciens": {"tested_on": "Shewanella putrefaciens", "conditions": "ref Moodie et al. ([2017b]); cited from earlier work"}, "[11]": {"tested_on": "Pseudoalteromonas elyakovii", "conditions": "ref Moodie et al. ([2017b]); cited from earlier work"}, "Halamphora coffeaeformis [12]": {"tested_on": "Halamphora coffeaeformis", "conditions": "ref Moodie et al. ([2017b]); cited from earlier work"}, "Halamphora coffeaeformis [13]": {"tested_on": "Halamphora coffeaeformis", "conditions": "ref Moodie et al. ([2017b]); cited from earlier work", "remark": "listed apart in the source"}, "[14]": {"tested_on": "Pleurochrysis roscoffensis", "conditions": "ref Moodie et al. ([2017b]); cited from earlier work"}, "[15]": {"tested_on": "Pleurochrysis roscoffensis", "conditions": "ref Moodie et al. ([2017b]); cited from earlier work", "remark": "listed apart in the source"}, "Cylindrotheca closterium [16]": {"tested_on": "Cylindrotheca closterium", "conditions": "ref Moodie et al. ([2017b]); cited from earlier work"}, "Cylindrotheca closterium [17]": {"tested_on": "Cylindrotheca closterium", "conditions": "ref Moodie et al. ([2017b]); cited from earlier work", "remark": "listed apart in the source"}, "Porphyridium purpureum [18]": {"tested_on": "Porphyridium purpureum", "conditions": "ref Moodie et al. ([2017b]); cited from earlier work"}, "Porphyridium purpureum [19]": {"tested_on": "Porphyridium purpureum", "conditions": "ref Moodie et al. ([2017b]); cited from earlier work", "remark": "listed apart in the source"}, "[20]": {"tested_on": "Balanus improvisus cyprid larvae", "conditions": "cited from earlier work"}, "Ciona savignyi": {"tested_on": "Ciona savignyi", "design": "method as in Moodie et al. [2017b]", "conditions": "ref Moodie et al. [2017b], cited from earlier work"}},
  "data": [
    {"compound": "COc1ccc(CCc2ccccc2)cc1OC", "note": "[Compound 2]", "values": [
      {"measurement": "MIC against the adhesion of marine bacteria, V.a.", "setting": "Vibrio aestuarianus [1]", "result": "– (Not active at > 10 μg/mL)"},
      {"measurement": "MIC against the adhesion of marine bacteria, V.c.", "setting": "Vibrio carchariae [2]", "result": "– (Not active at > 10 μg/mL)"},
      {"measurement": "MIC against the adhesion of marine bacteria, V.h.", "setting": "Vibrio harveyi [3]", "result": "– (Not active at > 10 μg/mL)"},
      {"measurement": "MIC against the adhesion of marine bacteria, V.p.", "setting": "Vibrio proteolyticus [4]", "result": "– (Not active at > 10 μg/mL)"},
      {"measurement": "MIC against the adhesion of marine bacteria, H.a.", "setting": "Halomonas aquamarina [5]", "result": "– (Not active at > 10 μg/mL)"},
      {"measurement": "Activity against bacterial adhesion", "setting": "marine bacteria", "result": "inactive"},
      {"measurement": "MIC against the growth of marine bacteria, V.a.", "setting": "Vibrio aestuarianus [6]", "result": 10, "unit": "µg/mL"},
      {"measurement": "MIC against the growth of marine bacteria, V.c.", "setting": "Vibrio carchariae [7]", "result": "– (Not active at > 10 μg/mL)"},
      {"measurement": "MIC against the growth of marine bacteria, V.h.", "setting": "Vibrio harveyi [8]", "result": "– (Not active at > 10 μg/mL)"},
      {"measurement": "MIC against the growth of marine bacteria, V.n.", "setting": "Vibrio natriegens", "result": "– (Not active at > 10 μg/mL)"},
      {"measurement": "MIC against the growth of marine bacteria, V.p.", "setting": "Vibrio proteolyticus [9]", "result": "– (Not active at > 10 μg/mL)"},
      {"measurement": "MIC against the growth of marine bacteria, H.a.", "setting": "Halomonas aquamarina [10]", "result": 0.01, "unit": "µg/mL"},
      {"measurement": "MIC against the growth of marine bacteria, R.l.", "setting": "Roseobacter litoralis", "result": 10, "unit": "µg/mL"},
      {"measurement": "MIC against the growth of marine bacteria, S.p.", "setting": "Shewanella putrefaciens", "result": 0.1, "unit": "µg/mL"},
      {"measurement": "MIC against the growth of marine bacteria, P.e.", "setting": "[11]", "result": 10, "unit": "µg/mL"},
      {"measurement": "MIC against the adhesion (A) of microalgae, H. coffeaformis", "setting": "Halamphora coffeaeformis [12]", "result": 1, "unit": "µg/mL"},
      {"measurement": "MIC against the growth (G) of microalgae, H. coffeaformis", "setting": "Halamphora coffeaeformis [13]", "result": 0.01, "unit": "µg/mL"},
      {"measurement": "MIC against the adhesion (A) of microalgae, P. roscoffensis", "setting": "[14]", "result": 1, "unit": "µg/mL"},
      {"measurement": "MIC against the growth (G) of microalgae, P. roscoffensis", "setting": "[15]", "result": 0.01, "unit": "µg/mL"},
      {"measurement": "MIC against the adhesion (A) of microalgae, C. closterium", "setting": "Cylindrotheca closterium [16]", "result": 0.1, "unit": "µg/mL"},
      {"measurement": "MIC against the growth (G) of microalgae, C. closterium", "setting": "Cylindrotheca closterium [17]", "result": 0.01, "unit": "µg/mL"},
      {"measurement": "MIC against the adhesion (A) of microalgae, P. purpureum", "setting": "Porphyridium purpureum [18]", "result": 10, "unit": "µg/mL"},
      {"measurement": "MIC against the growth (G) of microalgae, P. purpureum", "setting": "Porphyridium purpureum [19]", "result": 1, "unit": "µg/mL"},
      {"measurement": "IC50 (cyprid settlement inhibition)", "setting": "[20]; B. improvisus, ref Moodie et al. ([2017b])", "result": 0.75, "unit": "µg/mL"},
      {"measurement": "Toxicity (%) (dead cyprids)", "setting": "[20]; B. improvisus, reported at 5 μg/mL, ref Moodie et al. ([2017b])", "result": 5.3, "unit": "%"},
      {"measurement": "toxicity, in words", "setting": "[20]; Balanus improvisus, ref Moodie et al. [2017b]", "result": "low toxicity"},
      {"measurement": "inhibition of settlement, in words", "setting": "Ciona savignyi; even after 5 days", "result": "effectively inhibited"},
      {"measurement": "IC50 (settlement inhibition)", "setting": "Ciona savignyi", "result": 1.1, "unit": "µg/mL"},
      {"measurement": "toxicity, in words", "setting": "Ciona savignyi", "result": "low toxicity"}
    ]}
  ]
}
